Test results reported in patent US9365533B2, “Coumarin derivative” (NIPPON ZOKI PHARMACEUTICAL CO., LTD., priority 2012, dated 2016).

How the values were obtained:
[1] = test system: cartilage pieces of bovine metacarpophalangeal joint; test: Suppressive action to cartilage destruction: release of sGAG induced by IL-1α from cartilage pieces; type: cell-based; settings: Bos taurus, 96 h; 25 μmol/L test substance, 2 h pretreatment; human recombinant IL-1α 3 ng/mL; 4 days at 37° C.; read-out: sGAG Releasing Suppressive Rate (%)
Method: Evaluation of Suppressive Action to Cartilage Destruction [Release of sGAG Induced by Interleukin-1α (IL-1α)]
(1) Incubation of Cartilage Pieces
Each four cartilage pieces of bovine metacarpophalangeal joint were placed in each well of a 48-well plate and pretreated for 2 hours with a basal medium [D-MEM (Dulbecco's Modified Eagle Medium) containing 2 mmol/L of glutamine, 25 mmol/L of Hepes, 100 μg/mL of streptomycin, 100 IU/mL of penicillin and 5.6 μg/mL of amphotericin B] containing 25 μmol/L of a test substance. Human recombinant IL-1α (3 ng/mL) was added thereto followed by incubating at 37° C. for 4 days in a CO2 incubator set at 5 vol % of CO2. Culture supernatant and cartilage pieces were recovered and stored by freezing until the measurement for each of them.
(2) Measurement of the Amount of sGAG and Calculation of the Suppressive Rate for the Release of sGAG
The recovered cartilage pieces were treated with a papain solution [containing 1 mg/mL of papain, 100 mmol/L of sodium phosphate (pH 6.5), 5 mmol/L of L-cysteine and 5 mmol/L of disodium ethylenediaminetetraacetate (EDTA)] at 65° C. for about 16 hours to solubilize. Amount of sGAG in the resulting extract was measured using an sGAG Alcian Blue Binding Kit (Wieslab AB) which is a quantitative kit to which a Alcian blue staining protocol is applied. sGAG in the culture supernatant after the incubation was measured without subjecting to a papain treatment. Each releasing rate of sGAG was determined by the following formula to calculate the suppressive rate for the release of sGAG. Releasing rate (%) of sGAG={(Total sGAG amount in the culture supernatant)/[(Total sGAG amount in the culture supernatant)+(Total sGAG amount in the cartilage pieces)]}×100 Suppressive rate (%) for release of sGAG={[Releasing rate of sGAG (IL-1α stimulation)−Releasing rate of sGAG (Test substance)]/[Releasing rate of sGAG (IL-1α stimulation)−Releasing rate of sGAG (Non-stimulation)]}×100

[2] = test system: HFLS-OA cells; test: Suppressive action to TNF-α-induced proliferation of synovial cells (HFLS-OA), BrdU ELISA; type: cell-based; settings: 200 μmol/L test substance, human recombinant TNF-α 10 ng/mL, 5 days, BrdU incorporation increase by TNF-α = 100%; for activity at 200 µM: Synovial cell, 120 h, read-out: Synovial Cell Proliferation Rate (%)
Method: Evaluation of Suppressive Action to Cell Proliferation of Synovial Cells (HFLS-OA) Derived from Tissues of Human Osteoarthritis
(1) Incubation of HFLS-OA Cells
HFLS-OA cells were sown onto a 96-well plate so as to make them 10^4 cells/well/100 μL in a D-MEM containing 2 vol % of fetal bovine serum (FBS) and incubated for 24 hours. A test substance (200 μmol/L) and human recombinant TNF-α (10 ng/mL) were added thereto followed by incubating for 5 days.
(2) Measurement of Action to HFLS-OA Cell Proliferation
A kit [Cell Proliferation ELISA, BrdU (colorimetric) (Roche Diagnostics)] was used and measurement was conducted according to the protocol attached to the kit. HFLS-OA cells were incubated for 3 days and 10 μL of 5-bromo-2′-deoxyuridine (BrdU) dissolved in a phosphate buffered saline (PBS) (100 μmol/L, pH 7.4) was added to each well followed by incubating for 48 hours more. After the culture supernatant was removed from each well, 200 μL/well of an immobilization/denaturation solution was added thereto and the mixture was allowed to stand for 30 minutes whereby immobilization of the cells and denaturation of DNA were conducted. After the immobilization/denaturation solution was completely removed, 100 μL of a peroxidase-labeled anti-BrdU antibody solution was added thereto and the mixture was made to react at room temperature for 90 minutes. After washing with PBS, 100 μL of a substrate liquid (tetramethylbenzidine) was added to each well and the absorbance was measured. A cell proliferation rate upon addition of each test substance was calculated where an increase in incorporation of BrdU upon addition of TNF-α was defined as 100% of cell proliferation rate.

| Compound | inhibition at 25 µM [1] | activity at 200 µM [2] | Synovial Cell Proliferation Rate (%) [2] |
| --- | --- | --- | --- |
| COc1ccc(S(=O)(=O)Nc2cc3cccc(OS(=O)(=O)c4ccc(OC)cc4)c3oc2=O)cc1 [Compound 1, 3-[(4-Methoxyphenyl)sulfonylamino]-2-oxochromen-8-yl 4-methoxybenzenesulfonate] | 93% | -39.1% |  |
| COc1cccc(S(=O)(=O)Nc2cc3cccc(OS(=O)(=O)c4cccc(OC)c4)c3oc2=O)c1 [Compound 2, 3-[(3-Methoxyphenyl)sulfonylamino]-2-oxochromen-8-yl 3-methoxybenzenesulfonate] |  | -52.2% |  |
| COc1ccccc1S(=O)(=O)Nc1cc2cccc(OS(=O)(=O)c3ccccc3OC)c2oc1=O [Compound 3, 3-[(2-Methoxyphenyl)sulfonylamino]-2-oxochromen-8-yl 2-methoxybenzenesulfonate] |  | -65.1% |  |
| Cc1ccc(S(=O)(=O)Nc2cc3cccc(OS(=O)(=O)c4ccc(C)cc4)c3oc2=O)cc1 [Compound 4, 2-Oxo-3-(p-tolylsulfonylamino)chromen-8-yl 4-methyl-benzenesulfonate] |  | -88.1% |  |
| Cc1cccc(S(=O)(=O)Nc2cc3cccc(OS(=O)(=O)c4cccc(C)c4)c3oc2=O)c1 [Compound 5, 3-(m-Tolylsulfonylamino)-2-oxochromen-8-yl 3-methyl-benzenesulfonate] |  | -84.9% |  |
| Cc1ccccc1S(=O)(=O)Nc1cc2cccc(OS(=O)(=O)c3ccccc3C)c2oc1=O [Compound 6, 3-(o-Tolylsulfonylamino)-2-oxochromen-8-yl 2-methyl-benzenesulfonate] |  | -77.4% |  |
| O=c1oc2c(OS(=O)(=O)c3ccc(Cl)cc3)cccc2cc1NS(=O)(=O)c1ccc(Cl)cc1 [Compound 7, 3-[(4-Chlorophenyl)sulfonylamino]-2-oxochromen-8-yl 4-chlorobenzenesulfonate] |  | -92.5% |  |
| O=c1oc2c(OS(=O)(=O)c3cccc(Cl)c3)cccc2cc1NS(=O)(=O)c1cccc(Cl)c1 [Compound 8, 3-[(3-Chlorophenyl)sulfonylamino]-2-oxochromen-8-yl 3-chlorobenzenesulfonate] |  | -94.4% |  |
| O=c1oc2c(OS(=O)(=O)c3ccccc3Cl)cccc2cc1NS(=O)(=O)c1ccccc1Cl [Compound 9, 3-[(2-Chlorophenyl)sulfonylamino]-2-oxochromen-8-yl 2-chlorobenzenesulfonate] |  | -88.8% |  |
| O=c1oc2c(OS(=O)(=O)c3ccc(F)cc3)cccc2cc1NS(=O)(=O)c1ccc(F)cc1 [Compound 10, 3-[(4-Fluorophenyl)sulfonylamino]-2-oxochromen-8-yl 4-fluorobenzenesulfonate] |  | -34.9% |  |
| O=c1oc2c(OS(=O)(=O)c3cccc(F)c3)cccc2cc1NS(=O)(=O)c1cccc(F)c1 [Compound 11, 3-[(3-Fluorophenyl)sulfonylamino]-2-oxochromen-8-yl 3-fluorobenzenesulfonate] |  | -90.6% |  |
| O=c1oc2c(OS(=O)(=O)c3ccccc3F)cccc2cc1NS(=O)(=O)c1ccccc1F [Compound 12, 3-[(2-Fluorophenyl)sulfonylamino]-2-oxochromen-8-yl 2-fluorobenzenesulfonate] |  | -91.8% |  |
| N#Cc1ccc(S(=O)(=O)Nc2cc3cccc(OS(=O)(=O)c4ccc(C#N)cc4)c3oc2=O)cc1 [Compound 13, 3-[(4-Cyanophenyl)sulfonylamino]-2-oxochromen-8-yl 4-cyanobenzenesulfonate] | 44% | -54.1% |  |
| N#Cc1cccc(S(=O)(=O)Nc2cc3cccc(OS(=O)(=O)c4cccc(C#N)c4)c3oc2=O)c1 [Compound 14, 3-[(3-Cyanophenyl)sulfonylamino]-2-oxochromen-8-yl 3-cyanobenzenesulfonate] | 66% | -60.3% |  |
| N#Cc1ccccc1S(=O)(=O)Nc1cc2cccc(OS(=O)(=O)c3ccccc3C#N)c2oc1=O [Compound 15, 3-[(2-Cyanophenyl)sulfonylamino]-2-oxochromen-8-yl 2-cyanobenzenesulfonate] |  | -3.3% |  |
| O=c1oc2c(OS(=O)(=O)c3ccc([N+](=O)[O-])cc3)cccc2cc1NS(=O)(=O)c1ccc([N+](=O)[O-])cc1 [Compound 16, 3-[(4-Nitrophenyl)sulfonylamino]-2-oxochromen-8-yl 4-nitrobenzenesulfonate] | 112% | -19.9% |  |
| O=c1oc2c(OS(=O)(=O)c3cccc([N+](=O)[O-])c3)cccc2cc1NS(=O)(=O)c1cccc([N+](=O)[O-])c1 [Compound 17, 3-[(3-Nitrophenyl)sulfonylamino]-2-oxochromen-8-yl 3-nitrobenzenesulfonate] | 156% | -24.9% |  |
| O=c1oc2c(OS(=O)(=O)c3ccccc3[N+](=O)[O-])cccc2cc1NS(=O)(=O)c1ccccc1[N+](=O)[O-] [Compound 18, 3-[(2-Nitrophenyl)sulfonylamino]-2-oxochromen-8-yl 2-nitrobenzenesulfonate] | 81% | -23.8% |  |
| N#Cc1ccc(S(=O)(=O)Oc2cccc3cc(NS(=O)(=O)c4ccccc4)c(=O)oc23)cc1 [Compound 20, 3-(Benzenesulfonylamino)-2-oxochromen-8-yl 4-cyanobenzenesulfonate] | 35% | -42.1% |  |
| N#Cc1ccc(S(=O)(=O)Nc2cc3cccc(OS(=O)(=O)c4ccccc4)c3oc2=O)cc1 [Compound 21, 3-[(4-Cyanophenyl)sulfonylamino]-2-oxochromen-8-yl benzenesulfonate] | 69% | -41.2% |  |
| N#Cc1cccc(S(=O)(=O)Nc2cc3cccc(OS(=O)(=O)c4ccccc4)c3oc2=O)c1 [Compound 22, 3-[(3-Cyanophenyl)sulfonylamino]-2-oxochromen-8-yl benzenesulfonate] | 92% | -38.4% |  |
| O=c1oc2c(OS(=O)(=O)c3ccccc3)cccc2cc1NS(=O)(=O)c1ccc([N+](=O)[O-])cc1 [Compound 23, 3-[(4-Nitrophenyl)sulfonylamino]-2-oxochromen-8-yl benzenesulfonate] | 103% | -39% |  |
| O=c1oc2c(OS(=O)(=O)c3ccccc3)cccc2cc1NS(=O)(=O)c1cccc([N+](=O)[O-])c1 [Compound 24, 3-[(3-Nitrophenyl)sulfonylamino]-2-oxochromen-8-yl benzenesulfonate] | 90% | -40% |  |
| O=c1oc2c(OS(=O)(=O)c3ccccc3)cccc2cc1NS(=O)(=O)c1cccc(F)c1 [Compound 25, 3-[(3-Fluorophenyl)sulfonylamino]-2-oxochromen-8-yl benzenesulfonate] | 77% | -40.9% |  |
| O=c1oc2c(OS(=O)(=O)c3ccccc3)cccc2cc1NS(=O)(=O)c1ccc(F)c(F)c1 [Compound 26, 3-[(3,4-Difluorophenyl)sulfonylamino]-2-oxochromen-8-yl benzenesulfonate] | 97% | -38.4% |  |
| CS(=O)(=O)Nc1cc2cccc(OS(=O)(=O)c3cccc(Br)c3)c2oc1=O [Compound 39, 3-(Methanesulfonamide)-2-oxochromen-8-yl 3-bromobenzenesulfonate] |  |  | −43.0% |
| CS(=O)(=O)Nc1cc2cccc(OS(=O)(=O)c3ccccc3)c2oc1=O [Compound 40, 3-(Methanesulfonamide)-2-oxochromen-8-yl benzene-sulfonate] |  |  | −40.5% |
